Laboratory results: patent US11026426B2, “Oxadiazole and phenol derivatives as antibacterial and/or herbicidal agents” (NORTHERN ILLINOIS RESEARCH FOUNDATION, priority 2017, dated 2021)
Where two headings read alike, the source gives them in different places.

How the values were obtained:
[1] = test system: Corynebacterium pseudodiphtheriae; assay: Antibacterial preliminary screening CP; format: cell-based; conditions: score 0-3;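 note: 0 is no inhibition and 3 matches the commercial antibiotic control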
lettuce seeds = assay: Lettuce leaf assay; format: in vivo; design: key: 0 (no effect); 5(complete inhibition or bleaching); conditions: ranking 0-5
Method in brief: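 Qualitative assay: compounds in volatile organic solvent applied to filter paper in a petri dish, solvent evaporated, lettuce seeds and 5 mL water added to give test concentrations. Germination, root development and leaf bleaching scored days 3 and 4, ranked 0 (no effect) to 5 (complete inhibition or bleaching).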

LeIspE = LeIspE (Solanum lycopersicum, UniProt P93841); assay: University of Hamburg photometric enzymatic inhibition assay LeIspE; format: biochemical, Lycopersicon esculentum; conditions: read-out: LeIspE IC50
Sequence of LeIspE (P93841 89-401): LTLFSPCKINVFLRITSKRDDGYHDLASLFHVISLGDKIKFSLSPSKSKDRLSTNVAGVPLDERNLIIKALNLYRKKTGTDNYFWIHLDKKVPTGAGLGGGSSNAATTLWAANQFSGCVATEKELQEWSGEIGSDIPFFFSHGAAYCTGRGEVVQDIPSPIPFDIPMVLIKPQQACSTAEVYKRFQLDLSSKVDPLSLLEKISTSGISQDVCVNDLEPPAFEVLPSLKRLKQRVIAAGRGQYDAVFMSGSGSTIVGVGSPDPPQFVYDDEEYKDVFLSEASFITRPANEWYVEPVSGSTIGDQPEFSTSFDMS
Method in brief: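 Photometric coupled assay with pyruvate kinase/lactate dehydrogenase following NADH (460 μM). Mix: 100 mM Tris-HCl pH 8.0, 10 mM MgCl2, 1 mM DTT, 2.5 mM phosphoenolpyruvate, 2 mM ATP, 1 mM 4-diphosphocytidyl-2-C-methylerythritol, 1.1% DMSO, 2.4 mU IspE; incubated at 27° C.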

Micrococcus luteus [2] = assay: Antibacterial assay zone of inhibition Ml; format: cell-based
Pseudomonas aeruginosa [3] = assay: Antibacterial assay zone of inhibition Pa; format: cell-based
Corynebacterium xerosis [4] = assay: Antibacterial assay zone of inhibition Cx; format: cell-based
[5] = target: T1, Mycobacterium tuberculosis IspD (MtIspD) (Mycobacterium tuberculosis, UniProt P9WKG9); assay: Thermal shift assay against MtIspD; format: binding
T1 sequence (P9WKG9 1-231): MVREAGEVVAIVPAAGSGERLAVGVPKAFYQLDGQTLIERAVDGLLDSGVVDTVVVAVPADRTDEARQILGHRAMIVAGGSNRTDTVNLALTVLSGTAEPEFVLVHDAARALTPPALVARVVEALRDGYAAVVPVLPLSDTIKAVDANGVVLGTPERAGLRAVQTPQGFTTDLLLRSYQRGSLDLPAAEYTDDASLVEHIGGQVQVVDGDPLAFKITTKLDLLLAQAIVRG

Mycobacterium smegmatis [6] = assay: Antibacterial assay zone of inhibition Ms; format: cell-based
Pseudomonas aeruginosa [7] = assay: Antibacterial preliminary screening PA; format: cell-based
Bacillus cereus [8] = assay: Antibacterial assay zone of inhibition Bc; format: cell-based
[9] = target: Lycopersicon esculentum IspE (LeIspE) (Solanum lycopersicum, UniProt P93841); assay: Thermal shift assay against LeIspE; format: binding
Sequence of Lycopersicon esculentum IspE (LeIspE) (P93841 89-401): as the sequence (P93841 89-401) above

Corynebacterium xerosis [10] = assay: Antibacterial preliminary screening CX; format: cell-based; conditions: score 0-3; note: key: 0 represents no inhibition; 3 is comparable to commercial antibiotic control
Ec IspE = Ec IspE (Escherichia coli, UniProt P62615); assay: Kinase-Glo luminescent enzymatic assay Ec IspE; format: biochemical
Sequence of Ec IspE (P62615 whole entry): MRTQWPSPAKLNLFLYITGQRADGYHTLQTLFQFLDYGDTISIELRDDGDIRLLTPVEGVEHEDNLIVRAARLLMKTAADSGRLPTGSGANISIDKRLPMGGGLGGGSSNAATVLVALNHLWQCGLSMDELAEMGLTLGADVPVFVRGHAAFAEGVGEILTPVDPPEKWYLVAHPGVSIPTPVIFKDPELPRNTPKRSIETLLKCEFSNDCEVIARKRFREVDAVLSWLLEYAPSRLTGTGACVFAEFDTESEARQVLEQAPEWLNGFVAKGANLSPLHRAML

[11] = test system: Corynebacterium pseudodiphtheriae; assay: Antibacterial assay zone of inhibition Cp; format: cell-based
Escherichia coli [12] = assay: Antibacterial assay zone of inhibition Ec; format: cell-based
Micrococcus luteus [13] = assay: Antibacterial preliminary screening ML; format: cell-based; conditions: score 0-3; note: key: 0 represents no inhibition; 3 is comparable to commercial antibiotic control
Klebsiella pneumonia [14] = assay: Antibacterial preliminary screening KP; format: cell-based; conditions: score 0-3; note: key: 0 represents no inhibition; 3 is comparable to commercial antibiotic control
AtIspD = AtIspD (Arabidopsis thaliana, UniProt P69834); assay: University of Hamburg photometric enzymatic inhibition assay AtIspD; format: biochemical; conditions: read-out: AtIspD IC50
Sequence of AtIspD (P69834 62-302): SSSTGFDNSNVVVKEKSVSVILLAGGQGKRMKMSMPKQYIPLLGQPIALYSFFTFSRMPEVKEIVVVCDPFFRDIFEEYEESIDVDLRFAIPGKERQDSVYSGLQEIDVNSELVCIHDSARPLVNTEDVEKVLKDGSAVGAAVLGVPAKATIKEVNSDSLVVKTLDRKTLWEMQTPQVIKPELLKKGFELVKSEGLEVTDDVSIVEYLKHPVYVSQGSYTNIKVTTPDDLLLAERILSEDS
Method in brief: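 Coupled photometric assay: 2.4 mU AtIspD with 1 mM (2R,3S)-2,3-dihydroxy-4-oxopentyl phosphate, 2.1 mM CTP, excess IspE (0.4 U), ATP, pyruvate kinase/lactate dehydrogenase and 460 μM NADH. Run in 100 mM Tris-HCl pH 8.0, 10 mM MgCl2, 1 mM DTT, 1.1% DMSO at 27 °C, monitored photometrically.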

Bacillus cereus [15] = assay: Antibacterial preliminary screening BC; format: cell-based; conditions: score 0-3; note: key: 0 represents no inhibition; 3 is comparable to commercial antibiotic control
Bt IspE [16] = target: T2, Bt IspE (Burkholderia thailandensis, UniProt Q2T1B6); assay: ITC binding study with Bt IspE
T2 sequence (Q2T1B6 whole entry): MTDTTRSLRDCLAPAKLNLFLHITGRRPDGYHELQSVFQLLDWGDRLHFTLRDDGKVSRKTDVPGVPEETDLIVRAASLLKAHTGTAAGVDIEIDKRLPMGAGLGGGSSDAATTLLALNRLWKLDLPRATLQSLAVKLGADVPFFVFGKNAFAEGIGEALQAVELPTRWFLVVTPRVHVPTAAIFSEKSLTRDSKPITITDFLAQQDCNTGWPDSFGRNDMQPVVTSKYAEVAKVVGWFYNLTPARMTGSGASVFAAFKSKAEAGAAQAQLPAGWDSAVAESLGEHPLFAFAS
Protocol: All ITC experiments were performed under the same conditions as described herein. Compounds were dissolved in DMSO and brought to concentration with the dialysis buffer, with a maximum DMSO concentration of 10% by volume which was matched between ligand and enzyme, and centrifuged at 10,000 RPM for 10 minutes. The dialysis buffer was used for all sample dilutions to ensure buffers matching between the titrant and titrate, thus minimizing the excess heat due to buffer mismatch. ITC experiments were performed with IspE in the cell and ligand in the syringe. The initial injection volume was 2 μL (omitted) followed by 27 10 μL injections, every 240 seconds. Samples were run at 25° C., at pH 7.4, with a stirring speed of 307 RPM. Dilution runs were performed to allow determination of background heats caused by solution mismatch and instrument noise. Dilution runs were performed with ligand (at the same concentration as in the experiment run) in the syringe titrated into the dialysis buffer in the cell. Data were fit using OriginPro 7 with the ITC add-on by the manufacturer.

Mycobacterium smegmatis [17] = assay: Antibacterial preliminary screening MS; format: cell-based; conditions: score 0-3; note: key: 0 represents no inhibition; 3 is comparable to commercial antibiotic control
[18] = test system: Burkholderia thailandensis; format: cell-based; conditions: preliminary screening, score 0-3
Escherichia coli [19] = assay: Antibacterial preliminary screening EC; format: cell-based; conditions: score 0-3; note: key: 0 represents no inhibition; 3 is comparable to commercial antibiotic control
AtIspF = AtIspF (Arabidopsis thaliana, UniProt Q9CAK8); assay: University of Hamburg photometric enzymatic inhibition assay AtIspF; format: biochemical; conditions: read-out: AtIspF IC50
Sequence of AtIspF (Q9CAK8 53-231): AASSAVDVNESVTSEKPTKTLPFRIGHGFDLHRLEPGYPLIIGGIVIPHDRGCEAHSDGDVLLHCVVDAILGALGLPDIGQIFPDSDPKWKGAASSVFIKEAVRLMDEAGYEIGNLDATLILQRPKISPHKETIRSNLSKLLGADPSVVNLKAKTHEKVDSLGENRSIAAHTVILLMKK
Method in brief: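 Coupled photometric assay (CMP kinase/pyruvate kinase/lactate dehydrogenase, NADH consumption) with 2.4 mU AtIspF and 1 mM 4-diphosphocytidyl-2C-methylerythritol 2-phosphate, 2 mM ATP, in 100 mM Tris-HCl pH 8.0, 10 mM MgCl2, 1.1% DMSO. Monitored at 27 °C.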

Bt IspE [20] = target: T2, Bt IspE; assay: biochemical
Klebsiella pneumonia [21] = assay: Antibacterial assay zone of inhibition Kp; format: cell-based
[22] = test system: Burkholderia thailandensis; format: cell-based

SMILES: Clc1ccc(OCc2nnc(-c3nc4ccccc4s3)o2)c(Cl)c1 [HGN-333, 2-(benzo[d]thiazol-2-yl)-5-((2,4-dichlorophenoxy)methyl)-1,3,4-oxadiazole]
- CP score [1]: 0
- Bleaching (lettuce seeds; 0.15 mM): 0
- Germination (lettuce seeds; 0.15 mM): 0
- Root Dev. (lettuce seeds; 0.15 mM): 0
- Bleaching (lettuce seeds; 0.3 mM): 0
- Germination (lettuce seeds; 0.3 mM): 0
- Root Dev. (lettuce seeds; 0.3 mM): 0
- IC50 (LeIspE): 31 µM
- Antibacterial Ml zone of inhibition (Micrococcus luteus [2]; 0.1 mM): 0 millimeters
- Antibacterial Ml zone of inhibition (Micrococcus luteus [2]; 0.5 mM): 0 millimeters
- Antibacterial Ml zone of inhibition (Micrococcus luteus [2]; 1 mM): 0 millimeters
- Antibacterial Pa zone of inhibition (Pseudomonas aeruginosa [3]; 0.1 mM): 0 millimeters
- Antibacterial Pa zone of inhibition (Pseudomonas aeruginosa [3]; 0.5 mM): 18 millimeters
- Antibacterial Pa zone of inhibition (Pseudomonas aeruginosa [3]; 1 mM): 25 millimeters
- Antibacterial Cx zone of inhibition (Corynebacterium xerosis [4]; 0.1 mM): 0 millimeters
- Antibacterial Cx zone of inhibition (Corynebacterium xerosis [4]; 0.5 mM): 0 millimeters
- Antibacterial Cx zone of inhibition (Corynebacterium xerosis [4]; 1 mM): 0 millimeters
- MtIspD melting point change [5]: 1.3 °C
- MtIspD melting temp [5]: 49.3 °C
- Antibacterial Ms zone of inhibition (Mycobacterium smegmatis [6]; 0.1 mM): 0 millimeters
- Antibacterial Ms zone of inhibition (Mycobacterium smegmatis [6]; 0.5 mM): 0 millimeters
- Antibacterial Ms zone of inhibition (Mycobacterium smegmatis [6]; 1 mM): 0 millimeters
- effectiveness against Pseudomonas aeruginosa (Pseudomonas aeruginosa [7]): moderately effective
- PA score (Pseudomonas aeruginosa [7]; score 0-3): 2
- Antibacterial Bc zone of inhibition (Bacillus cereus [8]; 0.1 mM): 0 millimeters
- Antibacterial Bc zone of inhibition (Bacillus cereus [8]; 0.5 mM): 0 millimeters
- Antibacterial Bc zone of inhibition (Bacillus cereus [8]; 1 mM): 12.5 millimeters
- LeIspE melting point change [9]: −1.75 °C
- LeIspE melting temp [9]: 47.75 °C
- CX score (Corynebacterium xerosis [10]): 0
- IC50 (Ec IspE): 3 µM
- Antibacterial Cp zone of inhibition ([11]; 0.1 mM): 0 millimeters
- Antibacterial Cp zone of inhibition ([11]; 0.5 mM): 0 millimeters
- Antibacterial Cp zone of inhibition ([11]; 1 mM): 0 millimeters
- Antibacterial Ec zone of inhibition (Escherichia coli [12]; 0.1 mM): 0 millimeters
- Antibacterial Ec zone of inhibition (Escherichia coli [12]; 0.5 mM): 0 millimeters
- Antibacterial Ec zone of inhibition (Escherichia coli [12]; 1 mM): 0 millimeters
- ML score (Micrococcus luteus [13]): 0
- KP score (Klebsiella pneumonia [14]): 0
- IC50 (AtIspD): 151 µM
- BC score (Bacillus cereus [15]): 0
- KD app (ITC, words) (Bt IspE [16]): in the nanomolar range
- binding stoichiometry (ITC) (Bt IspE [16]): 0.903
- ΔH° (ITC) (Bt IspE [16]): -8.6 kcal/mol
- −TΔS (ITC) (Bt IspE [16]): -17.8 kcal/mol
- entropic contribution −TΔS (ITC) (Bt IspE [16]; b178, unit not given): −17.8
- MS score (Mycobacterium smegmatis [17]): 0
- BT score [18]: 0
- EC score (Escherichia coli [19]): 0
- IC50 (AtIspF): 291 µM
- IC50 (Bt IspE [20]): 28 µM
- melting point: 163 to 165 °C
- Antibacterial Kp zone of inhibition (Klebsiella pneumonia [21]; 0.1 mM): 0 millimeters
- Antibacterial Kp zone of inhibition (Klebsiella pneumonia [21]; 0.5 mM): 0 millimeters
- Antibacterial Kp zone of inhibition (Klebsiella pneumonia [21]; 1 mM): 0 millimeters
- Antibacterial Bt zone of inhibition ([22]; 0.1 mM): 0 millimeters
- Antibacterial Bt zone of inhibition ([22]; 0.5 mM): 15 millimeters
- Antibacterial Bt zone of inhibition ([22]; 1 mM): 19 millimeters
